Assay results: PubChem BioAssay AID1259411 (Chemical Carcinogenesis Research Information System (CCRIS), 2018)
Activity calls are given as the source filed them. No rule for the calls is given here.

Tested on: rodent carcinogenicity bioassays, tumor incidence
Experiment: CCRIS carcinogenicity studies
Summary of the method: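 NCI-built, expert-reviewed records of carcinogenicity and related test outcomes (mutagenicity, tumor promotion/inhibition) compiled from published and report sources, historical span 1985-2011, not updated.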

Measured: carcinogen call

C=C(Cl)CSC(=S)N(CC)CC
active: Species: MOUSE, Strain/Sex: B6C3F1/FEMALE, Route: ORAL, Dose: 0, 908, 1815 PPM TWA, IN DIET FOR 74 WK (STUDY DURATION: 90-91 WK), Dose: 0, 908, 1815 PPM TWA, IN DIET FOR 74 WK (STUDY DURATION: 90-91 WK), Tumor Site: Type of Lesion: MAMMARY GLAND: ADENOCARCINOMA OR SQUAMOUS METAPLASIA active; positive | Species: MOUSE, Strain/Sex: B6C3F1/MALE, Route: ORAL, Dose: 0, 949, 1897 PPM TWA, IN DIET FOR 74 WK (STUDY DURATION: 91 WK), Dose: 0, 949, 1897 PPM TWA, IN DIET FOR 74 WK (STUDY DURATION: 91 WK), Tumor Site: Type of Lesion: LUNG: ALVEOLAR/BRONCHIOLAR ADENOMA OR ALVEOLAR/BRONCHIOLAR CARCINOMA active; positive | Species: RAT, Strain/Sex: OSBORNE-MENDEL/FEMALE, Route: ORAL, Dose: 0, 250, 404 PPM TWA, IN DIET FOR 63-78 WK (STUDY DURATION: 104-111 WK), Dose: 0, 250, 404 PPM TWA, IN DIET FOR 63-78 WK (STUDY DURATION: 104-111 WK), Tumor Site: Type of Lesion: MAMMARY GLAND: ADENOCARCINOMA active; positive | Species: RAT, Strain/Sex: OSBORNE-MENDEL/MALE, Route: ORAL, Dose: 0, 250, 410 PPM TWA, IN DIET FOR 64-78 WK (STUDY DURATION: 103-111 WK), Dose: 0, 250, 410 PPM TWA, IN DIET FOR 64-78 WK (STUDY DURATION: 103-111 WK), Tumor Site: Type of Lesion: STOMACH: PAPILLOMA, SQUAMOUS CELL PAPILLOMA OR SQUAMOUS CELL CARCINOMA active; positive

O=C1NCCN1c1ncc([N+](=O)[O-])s1
active: Species: HAMSTER, Route: ORAL, Tumor Site: Type of Lesion: FORESTOMACH, URINARY BLADDER active; positive | Species: MOUSE, Route: ORAL, Tumor Site: Type of Lesion: FORESTOMACH, MAMMARY GLAND, OVARIES, LUNG, URINARY BLADDER, Tumor Site: Type of Lesion: FORESTOMACH, MAMMARY GLAND, OVARIES, LUNG, URINARY BLADDER active; positive

CC(=O)CN(CC(C)O)N=O (stereo not drawn)
active: Species: RAT, Strain/Sex: F344/FEMALE, Route: INTRAVESICULAR, Dose: 0, 2.5 MG IN 0.2 ML ETHANOL:DEIONIZED WATER (1:3) 2/WK FOR 22 WK (TOTAL DOSE 0.7 MMOL) (STUDY DURATION: LIFESPAN), Tumor Site: Type of Lesion: BLADDER: TUMOR, LIVER: TUMOR active; positive | Species: RAT, Strain/Sex: F344/FEMALE, Route: ORAL, Dose: 0, 55, 220 MG/L DRINKING WATER 5 D/WK FOR 40, 21 WK (TOTAL DOSE 220; 460 MG) (STUDY DURATION: LIFESPAN), Dose: 0, 55, 220 MG/L DRINKING WATER 5 D/WK FOR 40, 21 WK (TOTAL DOSE 220; 460 MG) (STUDY DURATION: LIFESPAN), Tumor Site: Type of Lesion: LIVER: CARCINOMA, ANGIOSARCOMA, LUNG: TUMOR, ESOPHAGUS: CARCINOMA, PAPILLOMA, NASAL CAVITY: TUMOR, Tumor Site: Type of Lesion: LIVER: CARCINOMA, ANGIOSARCOMA, LUNG: TUMOR, ESOPHAGUS: CARCINOMA, PAPILLOMA, NASAL CAVITY: TUMOR active; positive

O=C1CCc2c1cc1c3c2ccc2cccc(c23)C1
active: Species: MOUSE, Strain/Sex: T.O./MALE, FEMALE, Route: DERMAL, Dose: 0, 50 UG IN TOLUENE SOLUTION 2 D/WK FOR 39 OR 50 WK (STUDY DURATION: 2 YR), Tumor Site: Type of Lesion: SKIN: PAPILLOMA OR CARCINOMA active; positive

Nc1nc(/C=C/c2ccc([N+](=O)[O-])o2)no1
active: Species: MOUSE, Strain/Sex: CD-1/FEMALE, Route: GAVAGE, Dose: 0, 41, 82, 173 MG/KG/D SUSPENDED IN 25% GLYCEROL 4 D/WK FOR 371 D (TOTAL DOSE 0; 15.4; 30.9; 64.2 G) (STUDY DURATION: LI, Dose: 0, 41, 82, 173 MG/KG/D SUSPENDED IN 25% GLYCEROL 4 D/WK FOR 371 D (TOTAL DOSE 0; 15.4; 30.9; 64.2 G) (STUDY DURATION: LI, Tumor Site: Type of Lesion: THYMUS: LYMPHOMA, BLADDER: TRANSITIONAL CELL CARCINOMA, STOMACH: SQUAMOUS CELL CARCINOMA, SQUAMOUS PAPILLOMA, LUNG: ADEN, Tumor Site: Type of Lesion: THYMUS: LYMPHOMA, BLADDER: TRANSITIONAL CELL CARCINOMA, STOMACH: SQUAMOUS CELL CARCINOMA, SQUAMOUS PAPILLOMA, LUNG: ADEN active; positive | Species: MOUSE, Strain/Sex: CD-1/FEMALE, Route: ORAL, Dose: 0, 0.17% IN DIET FOR 58 WK (STUDY DURATION: 91 WK), Tumor Site: Type of Lesion: HEMATOPOIETIC SYSTEM: LYMPHOMA, THYMUS: LYMPHOMA, STOMACH: SQUAMOUS CELL CARCINOMA, SPINDLE CELL TUMOR, Tumor Site: Type of Lesion: HEMATOPOIETIC SYSTEM: LYMPHOMA, THYMUS: LYMPHOMA, STOMACH: SQUAMOUS CELL CARCINOMA, SPINDLE CELL TUMOR active; positive | Species: MOUSE, Strain/Sex: CD-1/FEMALE, Route: ORAL, Dose: 0, 0.25% IN DIET FOR 31 WK (STUDY DURATION: LIFE), Tumor Site: Type of Lesion: THYMUS: LYMPHOMA, STOMACH: SQUAMOUS CELL CARCINOMA, LUNG: ADENOMA, MAMMARY GLAND: ADENOCARCINOMA, Tumor Site: Type of Lesion: THYMUS: LYMPHOMA, STOMACH: SQUAMOUS CELL CARCINOMA, LUNG: ADENOMA, MAMMARY GLAND: ADENOCARCINOMA active; positive | Species: MOUSE, Strain/Sex: CD-1/MALE, Route: GAVAGE, Dose: 0, 45, 87, 185 MG/KG/D SUSPENDED IN 25% GLYCEROL 4 D/WK FOR 371 D (TOTAL DOSE 0; 16.8; 32.3; 68.8 G) (STUDY DURATION: LI, Dose: 0, 45, 87, 185 MG/KG/D SUSPENDED IN 25% GLYCEROL 4 D/WK FOR 371 D (TOTAL DOSE 0; 16.8; 32.3; 68.8 G) (STUDY DURATION: LI, Tumor Site: Type of Lesion: THYMUS: LYMPHOMA, BLADDER: TRANSITIONAL CELL CARCINOMA, STOMACH: SQUAMOUS CELL CARCINOMA, SQUAMOUS PAPILLOMA, LUNG: ADEN, Tumor Site: Type of Lesion: THYMUS: LYMPHOMA, BLADDER: TRANSITIONAL CELL CARCINOMA, STOMACH: SQUAMOUS CELL CARCINOMA, SQUAMOUS PAPILLOMA, LUNG: ADEN active; positive | Species: MOUSE, Strain/Sex: CD-1/MALE, Route: ORAL, Dose: 0, 0.18% IN DIET FOR 58 WK (STUDY DURATION: 92 WK), Tumor Site: Type of Lesion: THYMUS: LYMPHOMA, BLADDER: TRANSITIONAL CELL CARCINOMA, STOMACH: SQUAMOUS CELL CARCINOMA, SPINDLE CELL TUMOR, Tumor Site: Type of Lesion: THYMUS: LYMPHOMA, BLADDER: TRANSITIONAL CELL CARCINOMA, STOMACH: SQUAMOUS CELL CARCINOMA, SPINDLE CELL TUMOR active; positive | Species: MOUSE, Strain/Sex: CD-1/MALE, Route: ORAL, Dose: 0, 0.25% IN DIET FOR 38 WK (STUDY DURATION: LIFE), Tumor Site: Type of Lesion: THYMUS: LYMPHOMA, BLADDER: TRANSITIONAL CELL CARCINOMA, SPINDLE CELL TUMOR, STOMACH: SQUAMOUS CELL CARCINOMA, SQUAMOUS P, Tumor Site: Type of Lesion: THYMUS: LYMPHOMA, BLADDER: TRANSITIONAL CELL CARCINOMA, SPINDLE CELL TUMOR, STOMACH: SQUAMOUS CELL CARCINOMA, SQUAMOUS P active; positive

O=[N+]([O-])c1cccc2c1-c1cccc3c([N+](=O)[O-])ccc-2c13
active: Species: RAT, Strain/Sex: F344/DUCRJ/MALE, Route: PULMONARY IMPLANT, Dose: 0, 0.2 MG AS A SUSPENSION IN EQUAL VOL OF BEESWAX AND TRICAPRYLIN IMPLANTED IN LEFT LUNG (STUDY DURATION: 70 WK), Tumor Site: Type of Lesion: LUNG: TUMOR active; positive | Species: RAT, Strain/Sex: F344/MALE, Route: LUNG IMPLANT, Dose: 0, 200 UG IN BEESWAX/TRICAPRYLIN INTO LOWER LEFT LUNG ONCE (STUDY DURATION: 100 WK), Tumor Site: Type of Lesion: LUNG: SQUAMOUS CELL CARCINOMA active; positive | Species: RAT, Strain/Sex: F344/MALE, Route: PULMONARY IMPLANT, Dose: 0, 200 UG IN 50 µL BEESWAX/TRICAPRYLIN IMPLANTED FOR UP TO 100 WK (STUDY DURATION: 100 WK), Tumor Site: Type of Lesion: LUNG: TUMOR active; positive
